Experimental data taken from patent publication US20200338045A1, “ISOINDOLINE COMPOSITIONS AND METHODS FOR TREATING NEURODEGENERATIVE DISEASE” (priority 2017, published 2020).
Entries after “also recorded” stand apart in the source; their conditions may differ. Where two headings read alike, the source gives them in different places.

Assays:
[1] = tested on: neurogranin, Aβ, tau, NFL in CSF; assay: CSF Alzheimer's disease biomarkers by ELISA (COG0102); format: in vivo, human; settings: for neurogranin reduced: 28 days
Description: This trial (ClinicalTrials.gov NCT02907567) was a randomized, double-blind, placebo-controlled clinical trial in mild to moderate Alzheimer's patients (MMSE 18-26) (See FIG. 1 for clinical trial design). The trial was conducted at six sites in Australia. Patients were randomized into placebo (n=5) or CT1812-treated groups: 90 mg (n=4), 280 mg (n=5) or 560 mg (n=5) and treated once daily for 28 days. Clinical chemistry was done at Sydpath (Sydney, AU). Pharmacokinetics were done at CPR Pharma Services (Adelaide, AU). Cerebrospinal fluid samples were taken at screening and day 21-28 of treatment and aliquoted. Plasma samples were taken at screening or Day 1 (one sample) and day 14-28, then spun down to separate plasma and aliquoted. One set of CSF samples was analyzed for Alzheimer's disease biomarkers; protein measurements (Aβ42, A1340, total tau, tau phosphorylated at threonine 181 (phosphorylated tau), NFL and neurogranin) were performed using commercially available ELISA assays from Fujirebio according to the manufacturer's instructions (INNOTEST β-AMYLOID(1-42), INNOTEST β-AMYLOID(1-40), INNOTEST hTau Ag, INNOTEST PHOSPHO-TAU(181P), Uman Diagnostics NFL assay). Neurogranin was measured with a sandwich ELISA method using antibodies Ng2 and Ng22 developed at the University of Gotteborg (Kvartsberg et al. 2015). Identical aliquots of CSF, and plasma were analyzed for protein expression changes via LC/MSMS at Caprion (see below).

[2] = Phase 1 single ascending dose (SAD)/food-effect plasma pharmacokinetics; format: in vivo, human; settings: for Cmax / Tmax / AUC(0-inf) / half-life: human, plasma, oral; for AUC(0-inf): read-out: AUC0-inf (mean)
Description: Part A was a single ascending dose cohort study in which healthy, young subjects (less than 65 years old) received one dose of study drug in the morning after an overnight fast. Cohort dosing started at 10 mg and increased to 30 mg, 90 mg, 180 mg, 450 mg, and 1120 mg in subsequent cohorts. Six drug-treated and two placebo-treated subjects were randomized in each cohort. A seventh cohort of six subjects each received a single 90 mg dose of drug 30 min. after a meal. Following completion of all safety assessments and blood draws for PK analyses, subjects were discharged on Day 3.
In Part A, blood draws for assessment of PK parameters occurred pre-dose and at 15, 30, 45, 60, and 90 minutes post dose as well as at 2, 3, 4, 8, 12, 24, 36, and 48 hours post dose. […] In Part B, blood samples for plasma PK analysis were taken on Day 1 at pre-dose and at 2 hours post-dose, on Day 3 at pre-dose and at 15, 30 and 45 minutes and 1, 2, 3, 4, 8, 12 and 24 hours post-dose, on Days 4, 6, 8 and 10 at pre-dose and at 1.5 hours post-dose and following the final dose on Day 14 at pre-dose and 15, 30 and 45 minutes and 1, 2, 4, 8, 12, 24, 36 and 48 hours post-dose.
This was assessed by analysis of variance (ANOVA) of log-transformed Cmax, AUC0-24, AUC0-48, and/or AUC0-inf, using a model with factors for treatment (fed status or age [young vs. elderly] status) and subject within sequence. Treatment mean differences and 90% confidence intervals of the log transformed PK parameters were back-transformed, to present the geometric least squares means ratios and 90% confidence limits.

[3] = 30 mg, single 30 mg, fasted (n = 6)
[4] = 90 mg, single 90 mg, fasted (n = 6)
[5] = 90 mg, single 90 mg, fed (n = 6)
[6] = 180 mg, single 180 mg, fasted (n = 6)
[7] = 450 mg, single 450 mg, fasted (n = 6)
[8] = 1120 mg, single 1120 mg, fasted (n = 6)
[9] = single 90 mg, geometric least-squares mean

With `CC(C)(C)Oc1cc(CCC(C)(C)N2Cc3ccc(S(C)(=O)=O)cc3C2)ccc1O` [CT1812] the neurogranin reduced ([1]; 90 mg dose group) was 33%, the “Neurogranin, With CT1812” value ([1]; ELISA, direction of change) was “reduced and decreased and ↓*” and the “Aβ, tau and NFL biomarker levels” value ([1]; before and after treatment) was “remain unchanged”. The neurogranin reduced ([1]; pooled CT1812-treated group) was 17.6%, the “food effect on CT1812 exposure” value ([2]; 90 mg fed vs. fasted) was “not considered clinically significant; also recorded: no significant difference” and the “Cmax and AUC / plasma concentration vs dose” value ([2]; SAD 10 mg to 1120 mg) was “dose proportional; also recorded: slightly greater than proportional with dose; also recorded: slightly greater than dose proportionally”. The Cmax ([2]; 10 mg, single 10 mg, fasted, Day 1 (n = 6)) was 5.07 ng/mL, the Tmax ([2]; 10 mg, single 10 mg, fasted, Day 1 (n = 6), read-out: Tmax (median)) was 1.5 h and the AUC(0-inf) ([2]; 10 mg, single 10 mg, fasted, Day 1, n = 5) was 30.6 ng·h/mL. The half-life ([2]; 10 mg, single 10 mg, fasted, Day 1, n = 5, read-out: t1/2 (mean) (converted)) was 12 h, the Cmax [2, 3] was 19.5 ng/mL and the AUC(0-inf) [2, 3] was 77.2 ng·h/mL. For the same compound, the Tmax ([2]; 30 mg, single 30 mg, fasted (n = 6), read-out: Tmax (median)) was 0.88 h, the half-life ([2]; 30 mg, single 30 mg, fasted (n = 6), read-out: t1/2 (mean) (converted)) was 14 h and the Cmax [2, 4] was 109 ng/mL. The AUC(0-inf) [2, 4] was 305 ng·h/mL, the Tmax ([2]; 90 mg, single 90 mg, fasted (n = 6), read-out: Tmax (median)) was 1.25 h and the half-life ([2]; 90 mg, single 90 mg, fasted (n = 6), read-out: t1/2 (mean) (converted)) was 12.1 h. For the same compound, the Cmax [2, 5] was 81.7 ng/mL, the AUC(0-inf) [2, 5] was 261 ng·h/mL and the Tmax ([2]; 90 mg, single 90 mg, fed (n = 6), read-out: Tmax (median)) was 1.5 h. The half-life ([2]; 90 mg, single 90 mg, fed (n = 6), read-out: t1/2 (mean) (converted)) was 11.6 h, the Cmax [2, 6] was 161 ng/mL and the AUC(0-inf) [2, 6] was 478 ng·h/mL. The Tmax ([2]; 180 mg, single 180 mg, fasted (n = 6), read-out: Tmax (median)) was 1.25 h, the half-life ([2]; 180 mg, single 180 mg, fasted (n = 6), read-out: t1/2 (mean) (converted)) was 11.1 h and the Cmax [2, 7] was 504 ng/mL. The AUC(0-inf) [2, 7] was 1750 ng·h/mL, the Tmax ([2]; 450 mg, single 450 mg, fasted (n = 6), read-out: Tmax (median)) was 1.5 h and the half-life ([2]; 450 mg, single 450 mg, fasted (n = 6), read-out: t1/2 (mean) (converted)) was 12.2 h. The Cmax [2, 8] was 1460 ng/mL, the AUC(0-inf) [2, 8] was 6320 ng·h/mL and the Tmax ([2]; 1120 mg, single 1120 mg, fasted (n = 6), read-out: Tmax (median)) was 1.5 h. For the same compound, the half-life ([2]; 1120 mg, single 1120 mg, fasted (n = 6), read-out: t1/2 (mean) (converted)) was 11.8 h, the Tmax ([2]; part A (SAD), 10-1120 mg, read-out: median Tmax in plasma, range over doses) was 0.88 to 1.5 h and the half-life ([2]; part A (SAD), read-out: apparent mean half-life, range over doses) was 11.1 to 14 h. The “AUC0-48h lower under fed vs fasted conditions” value [2, 9] was about 20%, the “AUC0-inf lower under fed vs fasted conditions” value [2, 9] was about 20% and the “Cmax lower under fed vs fasted conditions” value [2, 9] was “approximately 40%”.
